pIC50: −log10 of the molar value.
Columns and labels:
[1] = target: benzodiazepine site of the GABA-A receptor; experiment: Benzodiazepine Receptor Binding Assay (inhibition of 3H-flunitrazepam binding); settings: Table 1; ca. 3 nM 3H-flunitrazepam, 25° C., 10-20 min; >10,000 = not active
[2] = Suppression of anxiety (punished licking, conflict test) in the adult male rat; format: in vivo, male rats; settings: Table 1, ip, minimum effective dose, >10 = active dose not determined; for minimal effective dose: read-out: Conflict (ip) MED
How it was run: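 Rats were deprived of water for 48 h and food for 24 h, with unpunished training the day before. Testing began at expected peak drug activity: 3-min session, every 20th lick punished by a 0.2-s shock.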

[3] = Suppression of metrazol-induced convulsions; format: in vivo, male CD1 mice; settings: Table 1, ip, mice, clonic convulsions after sc CD90 metrazol, >30 = active dose not determined; for ED50: Mus musculus, 0.5 h, read-out: Metrazol (ip) ED50
[4] = Horizontal Screen Test for Motor Coordination; format: in vivo, male CD1 mice; settings: Table 1, mice, parenteral, >300 = active dose not determined; for ED50: Mus musculus, read-out: Horiz. Screen ED50
Procedure: Some of the compounds of the invention were tested for their ability to act as general CNS agents and particularity as skeletal muscle relaxants and hypnotics/sedatives (Coughenour, L. L. et al. Pharm. Biochem. Behav. 1977, 6, 351). Male CD1 mice, fasted for at least 16 hours but allowed access to water except during the period of observation, were placed on a horizontally-held screen (mesh size 1/4", wire diameter approximately 1.0 mm). The screen was inverted and mice which successfully climb to the top side of the screen within one minute were selected for testing. Selected mice were weighed and divided into equal groups. Test compounds or vehicle were administered to those mice parenterally. At a pre-determined interval (or intervals) after administration, the animals were tested for their ability to climb to the top side of the inverted screen (pass the test). Activity is reported as the percent reduction in the number of animals that pass the test in each treatment group relative to the corresponding vehicle-treated group. Percent Reduction=100×([Percent Pass in Vehicle Group]-[Percent Pass in Test Group]/Percent Pass in Vehicle Group). Test compounds which produce a 50% or greater reduction in the number passing the test were considered active. ED50 values of the active compounds were calculated by the method of probits (Finney, D. J. 1971. Probit Analysis. London: Cambridge University Press) and are listed in Tables 1 to 5.

[5] = Screens in which the excluded compounds were tested (not specified); settings: compounds excluded from formula I
[6] = Horizontal Screen Test for Determining Benzodiazepine Antagonism; format: in vivo, male CD1 mice; settings: mice; for percent antagonism: given parenterally with chlordiazepoxide (28 mg/kg, sc), values above 0 considered active
Procedure: Some of the compounds of the invention were tested for their ability to antagonize the locomotor discoordinating property of chlordiazepoxide. Male CD1 mice, fasted for at least 16 hours but allowed access to water except during the period of observation, were placed on a horizontally-held screen (mesh size 1/4", wire diameter approximately 1.0 mm). The screen was inverted and mice which successfully climb to the top side of the screen within one minute were selected for testing. Selected mice were weighed and divided into equal groups. Test compounds or vehicle were administered to those mice parenterally at the same time as chlordrazepoxide (28 mg/kg, sc). At a pre-determined interval (or intervals) after administration, the animals were tested for their ability to climb to the top side of the inverted screen (pass the test). Activity is reported as the percent antagonism of the number of animals that fail the test in each treatment group relative to the corresponding chlordiazepoxide-treated group. Percent Antagonism =100×[(Percent Fail in Chlordiazepoxide Group)-(Percent Fail in Test Group)/Percent Fail in Chlordiazepoxide Group]. […] The percent antagonism values for the compounds of the present invention that were tested are as follows: CP 113=0, CP 53=0, CP 59=0,CP 102=0,[…],CP 7=17,CP 8=17,CP 9=30,CP 10=30, CP 11=92, CP 12=92, CP 13=100. Compounds having values above 0 were considered active as agents for treating drug overdoses, particularly overdoses of benzodiazepine.

Compound | pIC50 [1] | minimal effective dose [2] [mg/kg] | ED50 [3] [mg/kg] | ED50 [4] [mg/kg] | other results
O=C1CCN2C(=C1C(=O)Nc1ccncc1F)Nc1ccccc12 [compound 97] | 7.28 | 10 | 1 | > 10 | –
CN(C)c1ccc(NC(=O)C2=C(O)CCn3c2nc2ccc(Cl)cc23)cc1 [N-(4-(dimethylamino)phenyl)-8-chloro-1,2-dihydro-3-hydroxypyrido(1,2-a)benzimidazole-4-carboxamide] | – | – | – | – | biological activity in the screens in which they have been tested [5]: none of these compounds has exhibited biological activity
CN(C)c1cc(F)ccc1NC(=O)C1=C(O)CCn2c1nc1ccccc12 [1,2-dihydro-N-(2-dimethylamino-4-fluorophenyl)-3-hydroxypyrido(1,2-a)benzimidazole-4-carboxamide] | – | – | – | – | biological activity in the screens in which they have been tested [5]: none of these compounds has exhibited biological activity
CCCCc1ccc(NC(=O)C2=C3Nc4ccccc4N3CCC2=O)cc1 [compound 17] | < 5.00 | – | > 10 | 300 | –
O=C1CCN2C(=C1C(=O)Nn1cnnc1)Nc1ccccc12 [compound 42] | 5.57 | > 10 | > 10 | 300 | –
NC(=O)c1ccc(NC(=O)C2=C3Nc4ccccc4N3CCC2=O)cc1 [compound 90] | 6.96 | > 10 | > 10 | > 10 | –
O=C1CCN2C(=C1C(=O)Nc1cccc(F)c1)Nc1ccccc12 [compound 95] | 6.80 | > 10 | > 10 | > 10 | –
O=C1CCN2C(=C1C(=O)NC1CCNCC1)Nc1ccccc12 [compound 58] | < 5.00 | > 10 | > 10 | 100 | –
O=C(Nc1ccncc1)C1=C(O)CCn2c1nc1ccc(Cl)cc12 [8-chloro-1,2-dihydro-3-hydroxy-N-(4-pyridyl)-pyrido(1,2-a)benzimidazole-4-carboxamide] | – | – | – | – | biological activity in the screens in which they have been tested [5]: none of these compounds has exhibited biological activity
COc1ccc(NC(=O)C2=C(O)CCn3c2nc2ccccc23)cc1OC [CP 8, 1,2-Dihydro-N-(3,4-dimethoxyphenyl)-3-hydroxy-pyrido(1,2-a)benzimidazole-4-carboxamide] | – | – | – | – | percent antagonism [6]: 17%
O=C(Nc1ccccc1C(F)(F)F)C1=C(O)CCn2c1nc1ccccc12 [1,2-dihydro-3-hydroxy-N-(2-trifluoromethylphenyl)-pyrido(1,2-a)benzimidazole-4-carboxamide] | – | – | – | – | biological activity in the screens in which they have been tested [5]: none of these compounds has exhibited biological activity
C[n+]1ccc(NC(=O)C2=C3Nc4ccccc4N3CCC2=O)cc1 [compound 56] | 5.20 | > 10 | > 10 | 100 | –
N-(2-Fluorophenyl)-3-hydroxypyrido(1,2-a)benzimidazol-4-carboxamide [CP 139] | < 5.00 | – | – | – | Conflict (ip) MED [2]: > 10 mg/kg; Metrazol (ip) ED50 ([3]; 30 min): > 300 mg/kg; Horiz. Screen ED50 [4]: 300 mg/kg
O=C(Nc1ccc(O)cc1)C1=C(O)CCn2c1nc1ccccc12 [CP 10, 1,2-Dihydro-3-hydroxy-N-(4-hydroxyphenyl)pyrido(1,2-a)benzimidazole-4-carboxamide] | – | – | – | – | percent antagonism [6]: 30%
CNC1=Nc2ccc(Cl)cc2C(c2ccccc2)=[N+]([O-])C1 [chlordiazepoxide, reference compound] | – | – | – | – | impairment of the ability to pass the inverted screen test ([6]; chlordiazepoxide 28 mg/kg, sc): impairs the ability of all animals to pass this test
Cc1cccc(C)c1NC(=O)C1=C2Nc3ccccc3N2CCC1=O [compound 19] | 5.11 | > 10 | > 30 | 300 | –
O=C1CCN2C(=C1C(=O)Nc1ncncn1)Nc1ccccc12 [CP 53] | – | – | – | – | percent antagonism [6]: 0%

From patent US6218384A, “3-Oxo-pyrido(1,2-a)benzimidazole-4-carboxyl and 4-oxo-azepino(1,2-a)benzimidazole-5-carboxyl derivatives useful in treating central nervous system disorders” (Ortho-McNeil Pharmaceutical, Inc., priority 1997, dated 2001)
